Where two headings read alike, the source gives them in different places.
Columns and labels:
[1] = tested on: JAK1/TYK2 pSTAT5 (Tyr694/699) in THP-1 cell line; experiment: IFNa-stimulated JAK1/TYK2 pSTAT5 (Tyr694/699) inhibition cellular assay, AlphaLISA; type: cell-based; details: Homo sapiens, THP-1 cells, AlphaLISA (Assay B)
In short: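 THP-1, 2e4 cells/well, HBSS; cpd 1 h 37 °C (10000–0.04 nM final, 6-fold, 8 pt); IFNa 100 ng/mL added, 30 min; lyse, freeze −80 °C; pSTAT5 AlphaLISA, 615 nm; 4PL IC50, bottom fixed 0, slope −1.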

TYK2 JH2 = biological target: T1, TYK2 JH2 (Homo sapiens, UniProt P29597); experiment: TYK2 JH2 binding assay (KINOMEscan KdELECT competitive binding); details: TYK2 JH2 domain
T1 construct: purchased DiscoverX (KINOMEscan KdELECT service); host or cells: E. coli BL21-derived (T7 phage display) or HEK-293
T1 sequence (P29597 589-875 limits assumed): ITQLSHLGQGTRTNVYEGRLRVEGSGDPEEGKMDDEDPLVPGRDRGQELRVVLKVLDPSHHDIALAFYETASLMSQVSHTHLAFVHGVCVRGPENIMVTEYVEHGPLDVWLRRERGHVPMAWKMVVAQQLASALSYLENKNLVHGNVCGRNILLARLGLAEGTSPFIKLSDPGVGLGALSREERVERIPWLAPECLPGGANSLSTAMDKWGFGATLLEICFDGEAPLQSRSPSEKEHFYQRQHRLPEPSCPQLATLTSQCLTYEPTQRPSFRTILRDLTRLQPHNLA
In short: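 Competition binding, KdELECT format. Kinase (phage-tagged, E. coli BL21-derived host; or HEK-293, DNA-tagged) + ligand-coated streptavidin beads + cpd, 1 h RT, final DMSO 0.9%. Wash, elute 30 min with 0.5 μM non-biotinylated ligand; qPCR readout. Kd: 11-pt, 3-fold series.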

[2] = IFNa-stimulated, read-out: Cellular_THP1_IFNa-pSTATS_TYK2
[3] = DiscoverX KINOMEscan KdELECT (Assay A), read-out: Biochemical TYK2_DiscoverX_JH2_BND_Kd
[4] = KINOMEscan KdELECT (Assay A), read-out: Biochemical TYK2_DiscoverX_JH2_BND_Kd
[5] = IFNa-stimulated, read-out: Cellular THP1_IFNa-pSTATS_IC50
[6] = KINOMEscan KdELECT (Assay A), read-out: Biochemical TYK2_JH2_Kd
[7] = IFNa-stimulated pSTAT5 (Tyr694/699), read-out: Cellular_THP1_IFNa-pSTATS_TYK2

IC50 [1, 2] [nM]	Kd (TYK2 JH2; [4]) [nM]	SMILES	also measured
≤ 500	–	CNc1ncc(-c2nc3c(COC)cccc3o2)c2cc(NC(=O)C3CC3)ncc12 [Example 201, N-(5-(4-(methoxymethyl)benzo[d]oxazol-2-yl)-8-(methylamino)-2,7-naphthyridin-3-yl)cyclopropanecarboxamide]	Kd (TYK2 JH2; [3]): ≤ 100 nM
≤ 500	≤ 100	CNc1ncc(C#Cc2ccc(OC)c(C)n2)c2cc(NC(=O)C3CC3)ncc12 [Example 904, N-(5-((5-methoxy-6-methylpyridin-2-yl)ethynyl)-8-(methylamino)-2,7-naphthyridin-3-yl)cyclopropanecarboxamide]	–
≤ 500	–	CNc1ncc(-c2nc3cc(OC)ccc3o2)c2cc(Nc3ccc(N4CCOCC4)cn3)ncc12 [Example 380, 4-(5-methoxybenzo[d]oxazol-2-yl)-N^1-methyl-N^6-(5-morpholinopyridin-2-yl)-2,7-naphthyridine-1,6-diamine]	Kd (TYK2 JH2; [3]): ≤ 100 nM
–	–	CNc1ncc(/C=C2\CCOC2)c2cc(NC(=O)C3CC3)ncc12 [Example 79, (E)-N-(5-((dihydrofuran-3(2H)-ylidene)methyl)-8-(methylamino)-2,7-naphthyridin-3-yl)cyclopropanecarboxamide]	IC50 [1, 5]: > 500 nM; Kd (TYK2 JH2; [6]): ≤ 100 nM
≤ 500	≤ 100	CNc1ncc(C#Cc2ccc(-c3cnn(C)n3)cc2)c2cc(NC(=O)C3CC3)ncc12 [Example 957, N-(5-((4-(2-methyl-2H-1,2,3-triazol-4-yl)phenyl)ethynyl)-8-(methylamino)-2,7-naphthyridin-3-yl)cyclopropanecarboxamide]	–
> 500	≤ 100	CNc1ncc(-c2cnc3ccc(OC)cn23)c2cc(NC(=O)[C@H]3C[C@H]3C)ncc12 [Example 878, (1S,2R)—N-(5-(6-methoxyimidazo[1,2-a]pyridin-3-yl)-8-(methylamino)-2,7-naphthyridin-3-yl)-2-methylcyclopropane-1-carboxamide]	–
–	–	CNc1ncc(-c2ccc(C#N)cc2)c2cc(NC(=O)C3CC3)ncc12 [Example 37, N-(5-(4-cyanophenyl)-8-(methylamino)-2,7-naphthyridin-3-yl)cyclopropanecarboxamide]	IC50 [1, 5]: > 500 nM; Kd (TYK2 JH2; [6]): ≤ 100 nM
≤ 500	≤ 100	CNc1ncc(-c2nn3ccnc3s2)c2cc(NC(=O)C3CC3)ncc12 [Example 872, N-(5-(imidazo[2,1-b][1,3,4]thiadiazol-2-yl)-8-(methylamino)-2,7-naphthyridin-3-yl)cyclopropanecarboxamide]	–
≤ 500	–	CNc1ncc(-c2nc3cc(OC)ccn3n2)c2cc(NC(=O)C3CC3)ncc12 [Example 492, N-(5-(7-methoxy-[1,2,4]triazolo[1,5-a]pyridin-2-yl)-8-(methylamino)-2,7-naphthyridin-3-yl)cyclopropanecarboxamide]	Kd (TYK2 JH2; [3]): ≤ 100 nM
≤ 500	–	CNc1ncc(-c2nc3cc(N4CCOC(C)(C)C4)ccc3o2)c2cc(NC(=O)C3CC3)ncc12 [Example 317, N-(5-(5-(2,2-dimethylmorpholino)benzo[d]oxazol-2-yl)-8-(methylamino)-2,7-naphthyridin-3-yl)cyclopropanecarboxamide]	Kd (TYK2 JH2; [3]): ≤ 100 nM
≤ 500	–	COc1ccc2oc(-c3cnc(NC4CC4)c4cnc(NC(=O)C5CC5)cc34)nc2c1 [Example 367, N-(8-(cyclopropylamino)-5-(5-methoxybenzo[d]oxazol-2-yl)-2,7-naphthyridin-3-yl)cyclopropanecarboxamide]	Kd (TYK2 JH2; [3]): ≤ 100 nM
≤ 500	–	CNc1ncc(-c2nc3cc(OC(F)F)ccc3o2)c2cc(NC(=O)C3CC3)ncc12 [Example 225, N-(5-(5-(difluoromethoxy)benzo[d]oxazol-2-yl)-8-(methylamino)-2,7-naphthyridin-3-yl)cyclopropanecarboxamide]	Kd (TYK2 JH2; [3]): ≤ 100 nM
–	≤ 100	CNc1ncc(C#Cc2cnc(C)n2C)c2cc(NC(=O)[C@H]3C[C@H]3C)ncc12 [Example 1011]	IC50 [1, 7]: ≤ 500 nM
–	≤ 100	CNc1ncc(-c2nc3ccc(-c4ccn(C)n4)cn3n2)c2cc(NC(=O)C3CC3)ncc12 [Example 1042]	IC50 [1, 7]: ≤ 500 nM
≤ 500	≤ 100	CNc1ncc(C#Cc2ccnn2C)c2cc(NC(=O)C3CC3)ncc12 [Example 804, N-(5-((1-methyl-1H-pyrazol-5-yl)ethynyl)-8-(methylamino)-2,7-naphthyridin-3-yl)cyclopropanecarboxamide]	–
≤ 500	≤ 100	CNc1ncc(C#Cc2ccc3nc(C)sc3c2)c2cc(NC(=O)C3CC3)ncc12 [Example 628, N-(8-(methylamino)-5-((2-methylbenzo[d]thiazol-6-yl)ethynyl)-2,7-naphthyridin-3-yl)cyclopropanecarboxamide]	–

IC50 [1, 2] [nM]	Kd (TYK2 JH2; [4]) [nM]	SMILES	also measured
≤ 500	≤ 100	CNc1ncc(C#Cc2ccncc2CCO)c2cc(NC(=O)C3CC3)ncc12 [Example 724, N-(5-((3-(2-hydroxyethyl)pyridin-4-yl)ethynyl)-8-(methylamino)-2,7-naphthyridin-3-yl)cyclopropanecarboxamide]	–
≤ 500	≤ 100	CNc1ncc(-c2nc3cc(N4CCO[C@@H](C(F)F)C4)ccc3o2)c2cc(NC(=O)C3CC3)ncc12 (single isomer, unassigned) [Example 936]	–
–	–	CNc1ncc(-c2nc(C)c[nH]2)c2cc(NC(=O)C3CC3)ncc12 [Example 140, N-(5-(4-methyl-1H-imidazol-2-yl)-8-(methylamino)-2,7-naphthyridin-3-yl)cyclopropanecarboxamide]	IC50 [1, 5]: > 500 nM; Kd (TYK2 JH2; [6]): ≤ 100 nM
–	≤ 100	CNc1ncc(-c2nc3cc(OC)ccc3o2)c2cc(NC(=O)NC3CC3)ncc12 [Example 1097, 1-cyclopropyl-3-(5-(5-methoxybenzo[d]oxazol-2-yl)-8-(methylamino)-2,7-naphthyridin-3-yl)urea]	IC50 [1, 7]: ≤ 500 nM
≤ 500	≤ 100	CNc1ncc(C#Cc2cccnn2)c2cc(NC(=O)C3CC3)ncc12 [Example 641, N-(8-(methylamino)-5-(pyridazin-3-ylethynyl)-2,7-naphthyridin-3-yl)cyclopropanecarboxamide]	–
≤ 500	–	CNc1ncc(-c2nc3ccc(N4CCOCC4)cn3n2)c2cc(NC(=O)C3CC3)ncc12 [Example 471, N-(8-(methylamino)-5-(6-morpholino-[1,2,4]triazolo[1,5-a]pyridin-2-yl)-2,7-naphthyridin-3-yl)cyclopropanecarboxamide]	Kd (TYK2 JH2; [3]): ≤ 100 nM
–	–	CNc1ncc(-c2nc3ccc(F)cc3o2)c2cc(NC(=O)C3CC3)ncc12 [Example 179, N-(5-(6-fluorobenzo[d]oxazol-2-yl)-8-(methylamino)-2,7-naphthyridin-3-yl)cyclopropanecarboxamide]	IC50 [1, 5]: ≤ 500 nM; Kd (TYK2 JH2; [6]): ≤ 100 nM
–	≤ 100	CNc1ncc(-c2nc3ccc(-n4cccn4)cn3n2)c2cc(NC(=O)C3CC3)ncc12 [Example 1038]	IC50 [1, 7]: ≤ 500 nM
> 500	≤ 100	CNc1ncc(C#Cc2c(Cl)cc(OC)cc2Cl)c2cc(NC(=O)C3CC3)ncc12 [Example 636, N-(5-((2,6-dichloro-4-methoxyphenyl)ethynyl)-8-(methylamino)-2,7-naphthyridin-3-yl)cyclopropanecarboxamide]	–
–	–	CNc1ncc(-c2ccn(C(C)C)n2)c2cc(NC(=O)C3CC3)ncc12 [Example 148, N-(5-(1-isopropyl-1H-pyrazol-3-yl)-8-(methylamino)-2,7-naphthyridin-3-yl)cyclopropanecarboxamide]	IC50 [1, 5]: ≤ 500 nM; Kd (TYK2 JH2; [6]): ≤ 100 nM
≤ 500	≤ 100	CNc1ncc(C#Cc2cnc3ccccn23)c2cc(NC(=O)C3CC3)ncc12 [Example 633, N-(5-(imidazo[1,2-a]pyridin-3-ylethynyl)-8-(methylamino)-2,7-naphthyridin-3-yl)cyclopropanecarboxamide]	–
≤ 500	–	CNc1ncc(-c2nc3ccc(N4CC(O)C4)cn3n2)c2cc(NC(=O)C3CC3)ncc12 [Example 475, N-(5-(6-(3-hydroxyazetidin-1-yl)-[1,2,4]triazolo[1,5-a]pyridin-2-yl)-8-(methylamino)-2,7-naphthyridin-3-yl)cyclopropanecarboxamide]	Kd (TYK2 JH2; [3]): ≤ 100 nM
≤ 500	≤ 100	CNc1ncc(-c2nc3cc(N4CCO[C@H](C(F)(F)F)C4)ccc3o2)c2cc(NC(=O)C3CC3)ncc12 (single isomer, unassigned) [Example 923]	–
≤ 500	≤ 100	CNc1ncc(C#Cc2cc3sc(C)cc3cn2)c2cc(NC(=O)C3CC3)ncc12 [Example 968, N-[8-(methylamino)-5-[2-(2-methylthieno[3,2-c]pyridin-6-yl)ethynyl]-2,7-naphthyridin-3-yl]cyclopropanecarboxamide]	–
≤ 500	–	CNc1ncc(-c2nc3cccc(OC)c3o2)c2cc(NC(=O)C3CC3)ncc12 [Example 208, N-(5-(7-methoxybenzo[d]oxazol-2-yl)-8-(methylamino)-2,7-naphthyridin-3-yl)cyclopropanecarboxamide]	Kd (TYK2 JH2; [3]): ≤ 100 nM

— patent US20240025906A1 (NEURON23, INC., priority 2022, published 2024)
